In patent US20230321253A1, “BIFUNCTIONAL COMPOUNDS AND PHARMACEUTICAL USES THEREOF” (RISEN (SUZHOU) PHARMA TECH CO., LTD., priority 2022, published 2023):
pIC50: −log10 of the molar value.

What was measured:
[1] = test system: Aspc-1 cells; test: Cell proliferation study in Aspc-1 cells (Cell Titer Glo); assay type: cell-based; conditions: Homo sapiens, ASPC1, 72 hours, read-out: IC50, inhibitory effect on cellular proliferation
Protocol: Aspc-1 (Cobioer, CBP60546) cells were grown in RPMI 1640 (Gibco, 61870127) supplemented with 10% fetal bovine serum (Gibco, 10099141), 1% penicillin-streptomycin (Gibco, 15070-063). Aspc-1 cells in exponential growth phase were seeded into 96-well plate (Corning, 3599) at density of 4×10^3/well. Cells were cultured overnight at 37° C. with 5% CO2. On the next day, cells were treated with test compound at various concentrations for 72 hours in 37° C., 5% CO2 incubator (final DMSO concentration was 0.1%). After treatment, 100 μL Cell Tier Glo (Promega, G7573) was added to every well of the cell plates and the plates were incubated at room temperature (RT) for 10 minutes. Cell growth status was measured with Cell Tier Glo (Promega, G7573) following the manufacturer's instructions. The inhibition curve was obtained with GraphPad 7.0 software using four-parameter equation.

[2] = biological target: T1, KRAS-G12D protein (Homo sapiens, UniProt P01116, G12D); test: KRAS-G12D protein degradation study in Aspc-1 cells (western blot); assay type: cell-based; conditions: ASPC1, 24 h, 24 hours; for inhibition at 1 µM: Aspc-1 cells treated with 1 μM compound; for inhibition at 0.05 µM: Aspc-1 cells treated with 50 nM compound, read-out: Rate of degradation (KRAS^G12D)
T1 construct: host or cells: Aspc-1 cells
In short: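 AsPC-1 cells were treated with compound for 24 h at 37° C (0.1% DMSO final), then lysed; KRAS levels measured by western blot. Degradation % = 1 − (KRAS/GAPDH, compound) ÷ (KRAS/GAPDH, DMSO), ×100; DC50 derived from concentration curves.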

[3] = read-out: Rate of protein degradation (KRAS^G12D)

T1 sequence (P01116 1-188 isoform P01116-2 G12D): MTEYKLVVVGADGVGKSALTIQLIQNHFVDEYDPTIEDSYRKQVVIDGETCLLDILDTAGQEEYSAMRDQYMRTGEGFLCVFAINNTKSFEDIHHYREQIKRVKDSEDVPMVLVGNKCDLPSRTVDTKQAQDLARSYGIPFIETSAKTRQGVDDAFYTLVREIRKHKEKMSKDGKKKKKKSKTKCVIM

Compound | pIC50 [1] | inhibition at 1 µM [2, 3] [%] | inhibition at 0.1 µM ([2]; Aspc-1 cells treated with 0.1 μM compound, read-out: Rate of protein degradation (KRAS^G12D)) [%] | inhibition at 0.05 µM [2] [%]
CCc1c(F)ccc2cc(O)cc(-c3ncc4c(N5CC6CCC(C5)N6)nc(OCCCN5CCN(C(=O)CCCCC(=O)N[C@H](C(=O)N6C[C@H](O)C[C@H]6C(=O)NCc6ccc(-c7scnc7C)cc6)C(C)(C)C)CC5)nc4c3F)c12 [Compound 26] | 5.30 to 6.00 |  |  | 
C#Cc1c(F)ccc2cc(O)cc(-c3ncc4c(N5CC6CCC(C5)N6)nc(OCCCN5CCN(C(=O)CCCCC(=O)N[C@H](C(=O)N6C[C@H](O)C[C@H]6C(=O)NCc6ccc(-c7scnc7C)cc6)C(C)(C)C)CC5)nc4c3F)c12 [Compound 27] | 6.00 to 7.00 |  |  | 
C#Cc1c(F)ccc2cc(O)cc(-c3ncc4c(N5CC6CCC(C5)N6)nc(OCCCN5CCN(CCCCCCC(=O)N[C@H](C(=O)N6C[C@H](O)C[C@H]6C(=O)NCc6ccc(-c7scnc7C)cc6)C(C)(C)C)CC5)nc4c3F)c12 [Compound 29] | 5.30 to 6.00 | 31 to 60 |  | 
C#Cc1c(F)ccc2cc(O)cc(-c3ncc4c(N5CC6CCC(C5)N6)nc(OCCCN5CCN(CCCCCCCC(=O)N[C@H](C(=O)N6C[C@H](O)C[C@H]6C(=O)NCc6ccc(-c7scnc7C)cc6)C(C)(C)C)CC5)nc4c3F)c12 [Compound 31] | 5.30 to 6.00 | > 60 |  | 
C#Cc1c(F)ccc2cc(O)cc(-c3ncc4c(N5CC6CCC(C5)N6)nc(OCCN5CCN(CCCCCCCC(=O)N[C@H](C(=O)N6C[C@H](O)C[C@H]6C(=O)NCc6ccc(-c7scnc7C)cc6)C(C)(C)C)CC5)nc4c3F)c12 [Compound 32] | 5.30 to 6.00 | 11 to 30 |  | 
C#Cc1c(F)ccc2cc(O)cc(-c3ncc4c(N5CC6CCC(C5)N6)nc(OCCCN5CCN(C(=O)CN6CCC(c7ccc8c(C9CCC(=O)NC9=O)nn(C)c8c7)CC6)CC5)nc4c3F)c12 (stereo not drawn) [Compound 33] | 6.00 to 7.00 | > 60 | 31 to 60 | 
CCc1c(F)ccc2cc(O)cc(-c3ncc4c(N5CC6CCC(C5)N6)nc(OC[C@@H]5CCCN5C(=O)CCCCCCCC(=O)N[C@H](C(=O)N5C[C@H](O)C[C@H]5C(=O)NCc5ccc(-c6scnc6C)cc5)C(C)(C)C)nc4c3F)c12 [Compound 35] | 5.30 to 6.00 | 31 to 60 |  | 
C#Cc1c(F)ccc2cc(O)cc(-c3ncc4c(N5CC6CCC(C5)N6)nc(OC5CCN(CCCCCCCC(=O)N[C@H](C(=O)N6C[C@H](O)C[C@H]6C(=O)NCc6ccc(-c7scnc7C)cc6)C(C)(C)C)CC5)nc4c3F)c12 [Compound 39] | 5.00 to 5.30 |  |  | 
CCc1c(F)ccc2cc(O)cc(-c3ncc4c(N5CC6CCC(C5)N6)nc(OC5CCN(CCCCCCCCCC(=O)N[C@H](C(=O)N6C[C@H](O)C[C@H]6C(=O)NCc6ccc(-c7scnc7C)cc6)C(C)(C)C)CC5)nc4c3F)c12 [Compound 42] | 5.30 to 6.00 |  |  | 
C#Cc1c(F)ccc2cc(O)cc(-c3ncc4c(N5CC6CCC(C5)N6)nc(OC5CCCN(CCCCCCCCCCC(=O)N[C@H](C(=O)N6C[C@H](O)C[C@H]6C(=O)N[C@@H](C)c6ccc(-c7scnc7C)cc6)C(C)(C)C)C5)nc4c3F)c12 (stereo partly drawn) [Compound 48] | 5.30 to 6.00 |  |  | 
C#Cc1c(F)ccc2cc(O)cc(-c3ncc4c(N5CC6CCC(C5)N6)nc(OC5CCCN(CCCCCCCCCCC(=O)N6CCC(c7ccc8c(C9CCC(=O)NC9=O)nn(C)c8c7)CC6)C5)nc4c3F)c12 (stereo not drawn) [Compound 49] | 5.30 to 6.00 |  |  | 
C#Cc1c(F)ccc2cc(O)cc(-c3ncc4c(N5CC6CCC(C5)N6)nc(OCC5(CN6CCC7(CC6)CC(N6CCC(c8ccc(C9CCC(=O)NC9=O)cc8)CC6)C7)CC5)nc4c3F)c12 (stereo not drawn) [Compound 166] |  |  |  | > 60
C#Cc1c(F)ccc2cc(O)cc(-c3ncc4c(N5CC6CCC(C5)N6)nc(OCC5(CN6CCC7(CC6)CC(Nc6ccc8c(C9CCC(=O)NC9=O)nn(C)c8c6)C7)CC5)nc4c3F)c12 (stereo not drawn) [Compound 167] |  |  |  | > 60
C#Cc1c(F)ccc2cc(O)cc(-c3ncc4c(N5CC6CCC(C5)N6)nc(OCC5(CN6CCC7(CC6)CC(N6CCC(c8ccc9c(c8)C(=O)N(C8CCC(=O)NC8=O)C9=O)CC6)C7)CC5)nc4c3F)c12 (stereo not drawn) [Compound 170] |  |  |  | 31 to 60
C#Cc1c(F)ccc2cc(O)cc(-c3ncc4c(N5CC6CCC(C5)N6)nc(OCC5(CN6CCC7(CC6)CC(N6CCC(c8cccc9c8C(=O)N(C8CCC(=O)NC8=O)C9=O)CC6)C7)CC5)nc4c3F)c12 (stereo not drawn) [Compound 171] |  |  |  | ≤ 10
